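Following 48 hours of exposure in 96-well plates, responses at five concentrations were used to interpolate endpoints linearly. At the GI50, growth is halved.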 The source made the active and inactive calls. Cut-off read from the data, not from the text of the source: active = GI50 up to about 1.1 µM and inactive = higher.
What was measured:
Test in all cases: inhibition of tumour cell growth, NCI panel, 48 h
MDA-N = tested on: MDA-N
ACHN = tested on: ACHN
BT-549 = tested on: BT-549
HCC 2998 = tested on: HCC 2998
HOP-92 = tested on: HOP-92
HL-60 = tested on: HL-60
SF-268 = tested on: SF-268
TK-10 = tested on: TK-10
T47D = tested on: T47D
SN12C = tested on: SN12C
PC-3 = tested on: PC-3
UACC-257 = tested on: UACC-257
IGROV-1 = tested on: IGROV-1
SK-MEL-5 = tested on: SK-MEL-5
Malme-3M = tested on: Malme-3M
NCI-H23 = tested on: NCI-H23
NCI-H522 = tested on: NCI-H522
UACC-62 = tested on: UACC-62
SK-MEL-2 = tested on: SK-MEL-2
KM12 = tested on: KM12

SMILES | GI50 (MDA-N) | GI50 (ACHN) | GI50 (BT-549) | GI50 (HCC 2998) | GI50 (HOP-92) | GI50 (HL-60) | GI50 (SF-268) | GI50 (TK-10) | GI50 (T47D) | GI50 (SN12C) | GI50 (PC-3) | GI50 (UACC-257) | GI50 (IGROV-1) | GI50 (SK-MEL-5) | GI50 (Malme-3M) | GI50 (NCI-H23) | GI50 (NCI-H522) | GI50 (UACC-62) | GI50 (SK-MEL-2) | GI50 (KM12)
CCCCCCOc1ccc(C(=O)NO)cc1 | 13.2 µM (inactive) | 5.07 µM (inactive) | 15.8 µM (inactive) | 9.25 µM (inactive) | 13.9 µM (inactive) | 1.81 µM (inactive) | 5.64 µM (inactive) | 17.1 µM (inactive) | 5.83 µM (inactive) | 10.2 µM (inactive) | 9.51 µM (inactive) | 22.8 µM (inactive) | 3.61 µM (inactive) | 15.7 µM (inactive) | 11.3 µM (inactive) | 7.03 µM (inactive) | 3.14 µM (inactive) | 6.82 µM (inactive) | 12.4 µM (inactive) | 11.9 µM (inactive)
O=c1[nH]c2nccn2c(Cl)c1Br | 20 µM (inactive) | 29.9 µM (inactive) | 18.7 µM (inactive) | 21.1 µM (inactive) | 24.7 µM (inactive) | 17.2 µM (inactive) | 23.2 µM (inactive) | > 100 µM (inactive) | 14.8 µM (inactive) | 26.2 µM (inactive) | 50.2 µM (inactive) | 16.4 µM (inactive) | 20.3 µM (inactive) | 25.2 µM (inactive) | 20 µM (inactive) | 17.9 µM (inactive) | 14.6 µM (inactive) | 19.4 µM (inactive) | 2.52 µM (inactive) | 95.1 µM (inactive)
Cc1ccc(N2C(=O)C3c4[nH]c5ccccc5c4C4CCC(C(C)(C)C)CC4C3C2=O)cc1 (stereo not given) | 16.8 µM (inactive) | 6.64 µM (inactive) | 19.2 µM (inactive) | 14.8 µM (inactive) | 15.1 µM (inactive) | 7.62 µM (inactive) | 6.78 µM (inactive) | 6 µM (inactive) | 15.6 µM (inactive) | 10.3 µM (inactive) | 13 µM (inactive) | 13.3 µM (inactive) | 11.4 µM (inactive) | 16.8 µM (inactive) | 6.9 µM (inactive) | 15.1 µM (inactive) | 11.2 µM (inactive) | 16.4 µM (inactive) | 21.3 µM (inactive) | 17.5 µM (inactive)
CCCC1=C(OC)C(=O)c2c(C)cc(Cl)nc2C1=O | 1.73 µM (inactive) | 6.92 µM (inactive) | 13.6 µM (inactive) | 7.62 µM (inactive) | 5.79 µM (inactive) | 1.45 µM (inactive) | 7.08 µM (inactive) | 19.9 µM (inactive) | 2.99 µM (inactive) | 4.14 µM (inactive) | 9.08 µM (inactive) | 6.53 µM (inactive) | 11.7 µM (inactive) | 4.06 µM (inactive) | 3.02 µM (inactive) | 4.11 µM (inactive) | 2.43 µM (inactive) | 3.3 µM (inactive) | 10.5 µM (inactive) | 7.29 µM (inactive)
CC1=NNC(=O)[C@H]2[C@H]1CCC1[C@@H]2CC[C@]2(C)[C@@H](O)CC[C@@H]12 (stereo not given in full) | > 100 µM (inactive) | > 100 µM (inactive) | > 100 µM (inactive) | > 100 µM (inactive) | > 100 µM (inactive) | > 100 µM (inactive) | > 100 µM (inactive) | > 100 µM (inactive) | > 100 µM (inactive) | > 100 µM (inactive) | > 100 µM (inactive) | > 100 µM (inactive) | > 100 µM (inactive) | > 100 µM (inactive) | > 100 µM (inactive) | > 100 µM (inactive) | > 100 µM (inactive) | > 100 µM (inactive) | > 100 µM (inactive) | > 100 µM (inactive)
CCCCCCCCCCCCCCCCCCNc1ccn(C2OC(COP(=O)(O)OCC3OC(n4cc(F)c(NCCCCCCCCCCCCCCCCCC)nc4=O)CC3O)C(O)C2O)c(=O)n1 (stereo not given) | > 100 µM (inactive) | > 100 µM (inactive) | > 100 µM (inactive) | 63.5 µM (inactive) | 19.3 µM (inactive) | > 100 µM (inactive) | > 100 µM (inactive) | > 100 µM (inactive) | > 100 µM (inactive) | > 100 µM (inactive) | 56.8 µM (inactive) | > 100 µM (inactive) | > 100 µM (inactive) | > 100 µM (inactive) | 42.6 µM (inactive) | > 100 µM (inactive) | 38.9 µM (inactive) | > 100 µM (inactive) | > 100 µM (inactive) | > 100 µM (inactive)
CC(C)C(=O)/C=C/c1ccc(Cl)cc1Cl | 2.96 µM (inactive) | 16.2 µM (inactive) | 4.41 µM (inactive) | 16.4 µM (inactive) | 16.8 µM (inactive) | 7.05 µM (inactive) | 6.93 µM (inactive) | 14.2 µM (inactive) | 13 µM (inactive) | 10.7 µM (inactive) | 18.7 µM (inactive) | 13.3 µM (inactive) | 14.8 µM (inactive) | 14.5 µM (inactive) | 14.8 µM (inactive) | 13.7 µM (inactive) | 10.8 µM (inactive) | 13 µM (inactive) | 14.2 µM (inactive) | 4.06 µM (inactive)
C=C(CCC(=O)N(CCc1c[nH]c2ccccc12)C(=O)c1ccccc1CSCC)C(=O)OC | 38.4 µM (inactive) | 31.9 µM (inactive) | 71.9 µM (inactive) | 43.7 µM (inactive) | 40.6 µM (inactive) | 3.46 µM (inactive) | > 77.3 µM (inactive) | 66.5 µM (inactive) | 21.9 µM (inactive) | 30.3 µM (inactive) | 23.2 µM (inactive) | 35.3 µM (inactive) | 60.1 µM (inactive) | 23.4 µM (inactive) | 48.9 µM (inactive) | 31.9 µM (inactive) | 23.6 µM (inactive) | 12.4 µM (inactive) | 48.6 µM (inactive) | 8.2 µM (inactive)
CCSC1=N/C(=C\c2ccc(N(C)C)cc2)C(Cl)=N1 | > 100 µM (inactive) | > 100 µM (inactive) | > 100 µM (inactive) | > 100 µM (inactive) | > 100 µM (inactive) | > 100 µM (inactive) | > 100 µM (inactive) | > 100 µM (inactive) | 37.7 µM (inactive) | > 100 µM (inactive) | > 100 µM (inactive) | > 100 µM (inactive) | > 100 µM (inactive) | > 100 µM (inactive) | > 100 µM (inactive) | > 100 µM (inactive) | > 100 µM (inactive) | > 100 µM (inactive) | > 100 µM (inactive) | > 100 µM (inactive)
O=C1NC(N2CCOCC2)=N/C1=C\c1cccs1 | > 100 µM (inactive) | > 100 µM (inactive) | > 100 µM (inactive) | 4.65 µM (inactive) | > 100 µM (inactive) | > 100 µM (inactive) | > 100 µM (inactive) | > 100 µM (inactive) | > 100 µM (inactive) | > 100 µM (inactive) | > 100 µM (inactive) | > 100 µM (inactive) | > 100 µM (inactive) | > 100 µM (inactive) | > 100 µM (inactive) | > 100 µM (inactive) | > 100 µM (inactive) | > 100 µM (inactive) | > 100 µM (inactive) | 36.2 µM (inactive)
C/C=C(/C)C(=O)O[C@H]1[C@H](O)CC(c2ccc3c(c2O)C(=O)C2=C(O)C4(OC)C(=O)C(C(N)=O)=C(O)[C@H](CC(=O)c5ccccc5O)C4CC2[C@@]3(C)OC)O[C@@H]1C (stereo not given in full) | 0.0272 µM (active) | 0.00418 µM (active) | 0.0187 µM (active) | 0.0326 µM (active) | 0.0218 µM (active) | 0.0248 µM (active) | 0.0057 µM (active) | 0.00817 µM (active) | 0.0113 µM (active) | 0.00297 µM (active) | 0.00637 µM (active) | 0.0165 µM (active) | 0.00577 µM (active) | 0.001 µM (active) | 0.0182 µM (active) | 0.00711 µM (active) | 0.00557 µM (active) | 0.01 µM (active) | 0.00621 µM (active) | 0.00647 µM (active)
O=C(O)c1ccccc1C1CCCc2c1[nH]c1ccccc21 (stereo not given) | 27.6 µM (inactive) | 58.5 µM (inactive) | 83.6 µM (inactive) | > 100 µM (inactive) | 24 µM (inactive) | 33.2 µM (inactive) | 66.1 µM (inactive) | > 100 µM (inactive) | 11.4 µM (inactive) | > 100 µM (inactive) | 46.9 µM (inactive) | 69.7 µM (inactive) | 31.5 µM (inactive) | 36.5 µM (inactive) | 98.9 µM (inactive) | 74.1 µM (inactive) | 47.9 µM (inactive) | 53.2 µM (inactive) | 91.6 µM (inactive) | 36.7 µM (inactive)
O=C(O)c1cc2c(cc1S(=O)(=O)O)C1C(C3C2C2(Cl)C(Cl)=C(Cl)C3(Cl)C2(Cl)Cl)C2(Cl)C(Cl)=C(Cl)C1(Cl)C2(Cl)Cl (stereo not given) | 31.4 µM (inactive) | > 100 µM (inactive) | 67 µM (inactive) | 20.8 µM (inactive) | 29.2 µM (inactive) | 2.43 µM (inactive) | 58.7 µM (inactive) | > 100 µM (inactive) | 33.2 µM (inactive) | 8.71 µM (inactive) | 41 µM (inactive) | 90.2 µM (inactive) | 50.4 µM (inactive) | 34.7 µM (inactive) | 64.7 µM (inactive) | 26.4 µM (inactive) | 17.7 µM (inactive) | 21.9 µM (inactive) | 27 µM (inactive) | 51.4 µM (inactive)
O=C(O)/C=C/c1c2ccc(=O)c(O)c-2oc2c(O)c(O)ccc12 | 16.1 µM (inactive) | 30.8 µM (inactive) | 83.9 µM (inactive) | > 100 µM (inactive) | > 100 µM (inactive) | 82.2 µM (inactive) | > 100 µM (inactive) | > 100 µM (inactive) | > 100 µM (inactive) | 15.3 µM (inactive) | > 100 µM (inactive) | > 100 µM (inactive) | 82.6 µM (inactive) | 54 µM (inactive) | > 100 µM (inactive) | > 100 µM (inactive) | > 100 µM (inactive) | 50.1 µM (inactive) | 55.1 µM (inactive) | 25.3 µM (inactive)
